Structures are written as SMILES.

These results are taken from patent publication US9056110B2, “Substituted pyrimidinone-phenyl-pyrimidinyl compounds” (Confluence Life Sciences, Inc., priority 2011, dated 2015).

The target in one test is p38α/PRAK (Homo sapiens, UniProt Q16539). The experiment in a line: p38α/PRAK cascade assay (IMAP, Hsp27 peptide phosphorylation). It is filed as biochemical. As to conditions: Hsp27 peptide 1 μM, MgATP 10 μM, 120 minutes, read-out: p38/PRAK IC50. The method, then:
(§1) P38 inhibitory potency and P38/MK2 substrate selectivity: The novel, MK2 substrate-selective inhibitory mechanism of compounds is evaluated in enzyme assays that compare inhibitor potency in blocking p38/MK2 versus p38/PRAK induced phosphorylation of an HSP-27 derived peptide substrate. The ability of compounds to inhibit activated phospho-p38α is evaluated using a p38α/MK2 and a p38α/PRAK cascade assay format. The kinase activity of p38α is determined by its ability to phosphorylate and activate GST-MK2 or GST-PRAK. The kinase activity of activated MK2 and PRAK is followed by measuring the phosphorylation of a fluorescently-labeled, peptide substrate based on the sequence of Hsp27 (FITC-KKKALSRQLSVAA). The phosphorylation of the Hsp27 peptide is quantified using IMAP assay technology (Molecular Devices) and the Analyst HT plate reader (LJL Biosystems). Kinase reactions are carried out in a 384-well plate (Corning 3575) in 20 mM HEPES pH 7.5, 10 mM MgCl2, 0.0005% Tween-20, 0.01% BSA, 1 mM DTT, and 2% DMSO. The inhibitor concentration varies between 0.5-30,000 nM, while the Hsp27 peptide substrate and MgATP are held constant at 1 μM and 10 μM, respectively. Activated p38α is added to a final concentration of 20 pM for reactions with 1 nM nonphosphorylated 1 nM GST-MK2. For the p38α/PRAK cascade, unactivated GST-PRAK is held constant at 10 nM while p38α is added to a final concentration of […]. Kinase reactions are incubated at room temperature and quenched after 120 minutes by the addition of 1× Progressive Binding Buffer A containing 1×IMAP beads (IMAP FP Progressive Screening Express Kit, Molecular Devices Catalog Number R8127). Inhibitor potency is calculated by fitting dose-response data to the 4-parameter logistical IC50 equation. The substrate selectivity is calculated as a ratio of p38α/PRAK:p38α/MK2 IC50 values. A substrate selective inhibitor will have a p38α/PRAK:p38α/MK2 IC50 ratio of >2 while a classical p38 inhibitor will have a ratio of between 0.5-2. […] By way of example, the enhanced therapeutic benefit could be associated with a reduction in inhibition of p38 mediated anti-inflammatory functions, such as IL-10 production and TAB1 phosphorylation. An increased safety profile is expected based, for example, on a reduced inhibition of p38 substrates, such as PPARg and CDC25 phosphatase and PLA2 involved in gluconeogenesis and cell cycle regulation, respectively.

For another test, the target named is p38α/MK2 (Homo sapiens, UniProt Q16539). The test can be described thus: p38α/MK2 cascade assay (IMAP, Hsp27 peptide phosphorylation). In kind it is biochemical. As to conditions: for IC50: p38α/MK2 cascade, Hsp27 peptide 1 μM, MgATP 10 μM, 120 minutes, read-out: p38/MK2 IC50; for Selectivity Ratio: ratio of p38α/PRAK:p38α/MK2 IC50 values. The protocol:
as §1

Another test deals with TNFα. The test can be described thus: LPS stimulated TNFα production in human PBMCs (ELISA). It is filed as cell-based. The note with it: PBMC, LPS 0.1 μg/ml, 18-24 hours, read-out: PBMC Cell, TNFα IC50. The method, then: Evaluation of the potency and efficacy of p38 inhibitors to block cytokine production is carried out using the human U937 cell line and purified human PBMCs (peripheral blood mononuclear cells). The U937 human pre-monocytic cell line is obtained from the American Type Culture Collection (Rockville, Md.). These cells are differentiated to a monocytic/macrophage phenotype as described by Burnette (Burnette et al., (2009). SD0006: a potent, selective and orally available inhibitor of p38 kinase, Pharmacology 84(1):42-60). Differentiated U937 cells are seeded into 96-well tissue culture plates (200,000 cells/well) in complete media. After 24 hours, the cells are pretreated for 60 minutes in the presence or absence of compound and then stimulated with LPS (lipopolysaccharide) (0.1 μg/mL) for 4 hours. Culture media are then collected for determination of TNFα or IL-6 levels by ELISA. Human PBMCs are isolated from leukopacks as described by Burnette (Burnette et al., (2009), op. cit.). The cells are seeded into 96-well tissue culture plates (200,000 cells/well) in complete media. After a one hour recovery period at 37° C., 5% CO2, the cells are pretreated for 60 minutes in the presence or absence of compound and then stimulated with LPS (0.1 μg/ml) for 18-24 hours. Culture media are then collected for determination of TNFα and IL1β by ELISA. Cytokine concentrations are extrapolated from recombinant protein standard curves using a four-parameter logistic model and solving for IC50 after iterating to the best least-squares fit. p38 inhibitors will show a dose dependent inhibition of LPS stimulated TNFα, and IL6 in differentiated U937 cells and a dose dependent inhibition of LPS stimulated TNFα, IL6 and IL1b in human PBMCs. As drugs that down-regulate TNFα, IL6 and IL1b are efficacious in a number of autoimmune, autoinflammatory inflammatory, cardiovascular and oncological diseases, it would be expected that p38 drugs that inhibit these cytokines and other enzymes and mediators of disease will be effective drugs. Species compounds of Formula (I), described hereinabove, evaluated in this assay, are expected to provide a therapeutic benefit in the treatment of p38 kinase mediated diseases, including lymphoma and inflammation.
On the technique in general: An ELISA detects its analyte on a solid surface through an enzyme-linked reagent.

Chain of p38α/MK2 (Q16539 whole entry): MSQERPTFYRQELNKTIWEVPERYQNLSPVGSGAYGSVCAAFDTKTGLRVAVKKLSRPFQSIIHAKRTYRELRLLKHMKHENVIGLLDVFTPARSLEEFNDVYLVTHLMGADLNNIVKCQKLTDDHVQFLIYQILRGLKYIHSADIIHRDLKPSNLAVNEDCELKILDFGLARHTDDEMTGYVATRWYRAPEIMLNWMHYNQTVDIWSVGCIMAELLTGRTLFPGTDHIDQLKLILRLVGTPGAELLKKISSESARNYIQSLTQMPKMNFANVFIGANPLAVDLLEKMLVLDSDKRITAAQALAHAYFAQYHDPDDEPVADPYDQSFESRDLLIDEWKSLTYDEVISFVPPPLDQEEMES
Chain of p38α/MK2 (P49137 whole entry partner): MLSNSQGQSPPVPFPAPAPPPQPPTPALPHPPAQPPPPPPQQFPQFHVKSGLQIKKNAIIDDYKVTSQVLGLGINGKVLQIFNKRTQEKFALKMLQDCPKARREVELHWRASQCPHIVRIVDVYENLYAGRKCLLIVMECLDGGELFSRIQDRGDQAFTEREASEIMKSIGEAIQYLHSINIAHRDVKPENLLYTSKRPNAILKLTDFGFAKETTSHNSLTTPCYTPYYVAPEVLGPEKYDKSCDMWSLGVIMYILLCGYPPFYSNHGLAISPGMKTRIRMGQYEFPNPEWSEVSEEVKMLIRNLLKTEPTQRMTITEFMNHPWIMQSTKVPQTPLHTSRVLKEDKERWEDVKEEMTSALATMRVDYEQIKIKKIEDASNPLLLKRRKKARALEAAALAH
Chain of p38α/PRAK (Q16539 whole entry): as the sequence (Q16539 whole entry) above

As for `Cc1ccc(-c2ccnc(C(C)(C)O)n2)cc1-n1c(C)nc(OCc2cccc(C(F)(F)F)n2)c(Cl)c1=O` [Example 17, 5-chloro-3-(5-(2-(2-hydroxypropan-2-yl)pyrimidin-4-yl)-2-methylphenyl)-2-methyl-6-((6-(trifluoromethyl)pyridin-2-yl)methoxy)pyrimidin-4(3H)-one], the results for the IC50 at p38α/PRAK, on p38α/MK2 and with TNFα were over 30000 nM, 1700 nM and 3750 nM, respectively. The “Selectivity Ratio” value at p38α/MK2 is over 17.6.

For `Cc1nc(COc2nc(C)n(-c3cc(-c4ccnc(C(C)(C)O)n4)ccc3C)c(=O)c2Cl)cs1` [Example 12, 5-chloro-3-(5-(2-(2-hydroxypropan-2-yl)pyrimidin-4-yl)-2-methylphenyl)-2-methyl-6-((2-methylthiazol-4-yl)methoxy)pyrimidin-4(3H)-one], the IC50 on p38α/PRAK is 1360 nM; on p38α/MK2 it was 76 nM; in the test on TNFα, 118 nM. The “Selectivity Ratio” value at p38α/MK2 is 17.9.

Consider `Cc1ccc(-c2ccnc(C(C)(C)O)n2)cc1-n1c(C)nc(OCc2ccc(F)cc2)c(Cl)c1=O` [Example 3, 5-chloro-6-((4-fluorobenzyl)oxy)-3-(5-(2-(2-hydroxypropan-2-yl)pyrimidin-4-yl)-2-methylphenyl)-2-methylpyrimidin-4(3H)-one], for which the IC50 is 514 nM on p38α/PRAK, 51 nM at p38α/MK2 and 54 nM with TNFα. The “Selectivity Ratio” value at p38α/MK2 came to 10.1.

For the molecule `Cc1cc(COc2nc(C)n(-c3cc(-c4ccnc(C(C)(C)O)n4)ccc3C)c(=O)c2Cl)c(F)cc1F` [Example 23, 5-chloro-6-((2,4-difluoro-5-methylbenzyl)oxy)-3-(5-(2-(2-hydroxypropan-2-yl)pyrimidin-4-yl)-2-methylphenyl)-2-methylpyrimidin-4(3H)-one], the IC50 at p38α/PRAK is 514 nM; at p38α/MK2 it was 44 nM; in the test with TNFα, 74 nM. Also, on p38α/MK2, the “Selectivity Ratio” value amounted to 11.7.

Regarding `Cc1cccc(COc2nc(C)n(-c3cc(-c4ccnc(C(C)(C)O)n4)ccc3C)c(=O)c2Cl)n1` [Example 15, (−)-5-chloro-3-(5-(2-(2-hydroxypropan-2-yl)pyrimidin-4-yl)-2-methylphenyl)-2-methyl-6-((6-methylpyridin-2-yl)methoxy)pyrimidin-4(3H)-one], the figures for the IC50 at p38α/PRAK, at p38α/MK2 and with TNFα were 1230 nM, 52 nM and 70 nM, respectively. Moreover, the “Selectivity Ratio” value at p38α/MK2 is on record as 23.6.

As to `Cc1cccc(COc2nc(C)n(-c3cc(-c4ccnc(C(C)(C)O)n4)ccc3C)c(=O)c2Cl)c1` [Example 5, 5-chloro-3-(5-(2-(2-hydroxypropan-2-yl)pyrimidin-4-yl)-2-methylphenyl)-2-methyl-6-((3-methylbenzyl)oxy)pyrimidin-4(3H)-one], the IC50 worked out at 582 nM on p38α/PRAK, 39 nM on p38α/MK2 and 40 nM in the test on TNFα. For the same molecule, the “Selectivity Ratio” value at p38α/MK2 came to 14.9.

As for `Cc1ccc(-c2ccnc(C(C)(C)O)n2)cc1-n1c(C)nc(OCc2ccc(F)c(C)c2F)c(Cl)c1=O` [Example 22, 5-chloro-6-(2,4-difluoro-3-methyl-benzyloxy)-3-{5-[2-(1-hydroxy-1-methyl-ethyl)-pyrimidin-4-yl]-2-methyl-phenyl}-2-methyl-3H-pyrimidin-4-one], the IC50 on p38α/PRAK stood at 5820 nM; at p38α/MK2, 386 nM; with TNFα it was 215 nM. Moreover, the “Selectivity Ratio” value at p38α/MK2 was determined as 15.1.

Turning to `Cc1ccc(-c2ccnc(C(C)(C)O)n2)cc1-n1c(C)nc(OCc2ncc(F)cc2F)c(Cl)c1=O` (racemic) [Example 19, 5-chloro-6-((3,5-difluoropyridin-2-yl)methoxy)-3-(5-(2-(2-hydroxypropan-2-yl)pyrimidin-4-yl)-2-methylphenyl)-2-methylpyrimidin-4(3H)-one], the IC50 was found to be 566 nM on p38α/PRAK, 40 nM at p38α/MK2 and 104 nM in the test on TNFα. Besides, the “Selectivity Ratio” value on p38α/MK2 amounted to 14.1.

Take `Cc1cccc(COc2nc(C)n(-c3cc(-c4ccnc(C(C)(C)O)n4)ccc3C)c(=O)c2Cl)n1` (racemic) [Example 14, 5-chloro-3-(5-(2-(2-hydroxypropan-2-yl)pyrimidin-4-yl)-2-methylphenyl)-2-methyl-6-((6-methylpyridin-2-yl)methoxy)pyrimidin-4(3H)-one]: the values for the IC50 at p38α/PRAK, on p38α/MK2 and in the test with TNFα were 3300 nM, 184 nM and 250 nM, respectively. At p38α/MK2, the “Selectivity Ratio” value is recorded as 17.9.

Consider `COc1cccc(COc2nc(C)n(-c3cc(-c4ccnc(C(C)(C)C)n4)ccc3C)c(=O)c2Cl)c1` [Example 6, 3-[5-(2-tert-butyl-pyrimidin-4-yl)-2-methyl-phenyl]-5-chloro-6-(3-methoxy-benzyloxy) -2-methyl-3H-pyrimidin-4-one], for which the figures for the IC50 at p38α/PRAK, on p38α/MK2 and with TNFα were 11600 nM, 1900 nM and 270 nM, respectively. Moreover, the “Selectivity Ratio” value on p38α/MK2 is 6.1.

With `COc1cccc(COc2nc(C)n(-c3cc(-c4ccnc(C(C)(C)O)n4)ccc3C)c(=O)c2Cl)c1` [Example 7, 5-chloro-3-(5-(2-(2-hydroxypropan-2-yl)pyrimidin-4-yl)-2-methylphenyl)-6-((3-methoxybenzyl)oxy)-2-methylpyrimidin-4(3H)-one], the IC50 on p38α/PRAK turned out to be 1490 nM; at p38α/MK2, 62 nM; in the test with TNFα, 94 nM. Besides, the “Selectivity Ratio” value on p38α/MK2 came out at 24.

With `Cc1ccc(-c2ccnc(C(C)(C)O)n2)cc1-n1c(C)nc(OCc2ncc(F)cc2F)c(Cl)c1=O` [Example 20, (+)-5-chloro-6-((3,5-difluoropyridin-2-yl)methoxy)-3-(5-(2-(2-hydroxypropan-2-yl)pyrimidin-4-yl)-2-methylphenyl)-2-methylpyrimidin-4(3H)-one], the IC50 at p38α/PRAK worked out at 15200 nM; at p38α/MK2, 5380 nM. For the same molecule, the “Selectivity Ratio” value at p38α/MK2 is reported as 2.82.

For `Cc1cccc(COc2nc(C)n(-c3cc(-c4ccnc(C(C)(C)O)n4)ccc3C)c(=O)c2Cl)n1` (single isomer, unassigned) [Example 16, (+)-5-chloro-3-(5-(2-(2-hydroxypropan-2-yl)pyrimidin-4-yl)-2-methylphenyl)-2-methyl-6-((6-methylpyridin-2-yl)methoxy)pyrimidin-4(3H)-one], at p38α/MK2, the IC50 came to 5030 nM and the “Selectivity Ratio” value was over 6.0. For the same molecule, the IC50 in the test with TNFα turned out to be 3560 nM.

`Cc1nc(COc2nc(C)n(-c3cc(-c4ccnc(C(C)(C)O)n4)ccc3C)c(=O)c2Cl)co1` (single isomer, unassigned) [Example 10, (+)-5-chloro-3-(5-(2-(2-hydroxypropan-2-yl)pyrimidin-4-yl)-2-methylphenyl)-2-methyl-6-((2-methyloxazol-4-yl)methoxy)pyrimidin-4(3H)-one]: on p38α/MK2, the IC50 was found to be 19200 nM and the “Selectivity Ratio” value is over 1.56.
